Experimental data published in patent US20060111368A1, “Phosphodiesterase inhibitor” (Kyowa Hakko Kogyo Co., Ltd., priority 2002, published 2006).
Where a name gives a salt, the structure may show the parent alone.

Target: T1, PDE10A (Homo sapiens, UniProt Q9Y233)
T1 construct: made in house; host or cells: Sf9 insect cells (baculovirus, pVL1393)
Experiment: Activity of inhibiting PDE10A activity ([3H]cAMP decomposition inhibiting test)
Assay type: biochemical
Settings: substrate [3H]cAMP 0.2 μmol/L
Description: Activity of Inhibiting PDE10A Activity (^3H]cAMP Decomposition Inhibiting Test)
PCR was performed using DNAs having base sequences described in SEQ ID NO. 1 and SEQ ID NO. 2 as primers and human kidney cDNA as a template to prepare a plasmid containing amplified fragments. The plasmid was cleaved with restriction endonucleases Pst I and Xba I to obtain a Pst I-Xba I fragment of 0.7 kb.
Meanwhile, Est clone (Cosmo Bio, Tokyo) of GenBank, ACCESSION WO 4835 was cleaved with restriction endonucleases Kpn I and Pst I to obtain a Kpn I-Pst I fragment of 1.5 kb.
The resulting Pst I-Xba I fragment of 0.7 kb and Kpn I-Pst I fragment of 1.5 kb were subcloned in a Kpn I-Xba I site of pBluescript II KS(−) (STRATAGENE, La Jolla, Calif., USA),to construct a plasmid having a cDNA fragment completely including a catalyst region of PDE10A. Subsequently, the plasmid was cleaved with restriction endonucleases Kpn I and Not I to obtain a Kpn I-Not I fragment of 2.2 kb.
The resulting Kpn I-Not I fragment of 2.2 kb and a linker having a BamH I-Kpn I cleavage surface prepared by synthetic DNA having base sequences described in SEQ ID NOS. 3 and 4 were subcloned in a BamH I-Not I site of pVL1393 (PharMingen, San Diego, Calif., USA) to obtain a plasmid for preparation of Baculovirus. The plasmid contains a DNA encoding a peptide in which methionine, FLAG tag and a peptide having a 64th to 779th amino acid sequence of PDE10A [GenBank, ACCESSION NP 006652: Gene, vol. 234, p. 109 (1999), J. Biol. Chem., vol. 274, p. 18438 (1999)] are bound in the order.
The above gene recombinational manipulation was performed according to the method described in Molecular Cloning, 2nd edition, Cold Spring Harbor Laboratory Press, New York (1989).
The expression of PDE10A was conducted according to the Baculovirus expression vector system manual (PharMingen) using insect cells. As insect cells, Sf9 cells (Asahi Technoglass, Tokyo) were used. Sf9 cells were infected with a supernatant (co-transfection sup) containing PDE10A expression virus prepared according to the manual, and cultured at 27° C. for 4 days. The cells were recovered, washed with a phosphate-buffered saline (PBS), and then suspended in an extraction solution [20 mmol/L Tris-acetate (pH 7.5), 2 mmol/L MgCl2, 1 mmol/L dithiothreitol, 1 mmol/L ethylenediaminetetraacetic acid (EDTA), 0.25 mol/L sucrose, 250 unit/mL aprotinin, 40 μg/mL phenylmethylsulfonyl fluoride, and 1 μg/mL pepstatin A]. The cells were disrupted in ice with the maximum output under conditions of 5 seconds and five times using an ultrasonic disruption machine (TOMY model UR-200R, TOMY, Tokyo). A soluble fraction was obtained by centrifugation under 10,000 rpm of the fraction at 4° C. for 30 minutes, and the resulting soluble fraction was used for measuring the PDE activity.
The PDE activity was measured according to the method described in Methods Enzymol., vol. 159, p. 457 (1988).
Using [^3H]cAMP as a substrate, an enzyme reaction was conducted in a reaction solution containing 300 μL of 50 mmol/L N,N-bis (2-hydroxyethyl)-2-aminoethanesulfonic acid (pH 7.2), 1 mmol/L MgCl2 and 0.1 mmol/L ethylene glycol-bis (β-aminoethyl ether)-N,N,N′,N′-tetraacetic acid: EGTA). The concentration of the substrate was 0.2 μmol/L. To 95 μL of an enzyme dilute solution were added 5 μL of a test compound (DMSO solution) and 200 μL of a substrate solution. The mixture was incubated at 30° C. for 20 minutes, and then HCl was added to stop the reaction. The reaction product (5′-AMP) was converted to adenosine using 5′-nucleotidase, and separated the unreacted product from the reactant by DEAE-Sephadex A-25 column (Amersham Pharmacia Biotech, Uppsala, Sweden). The elute was moved to scintillation vials, 6 mL of Ultima Gold (Packard Instrument, Meriden, Conn., USA) was added, and the radioactivity was measured for 2 minutes using a liquid scintillation counter (Beckman LS6500, Beckman, Tokyo),. […]

T1 sequence (Q9Y233 340-1055): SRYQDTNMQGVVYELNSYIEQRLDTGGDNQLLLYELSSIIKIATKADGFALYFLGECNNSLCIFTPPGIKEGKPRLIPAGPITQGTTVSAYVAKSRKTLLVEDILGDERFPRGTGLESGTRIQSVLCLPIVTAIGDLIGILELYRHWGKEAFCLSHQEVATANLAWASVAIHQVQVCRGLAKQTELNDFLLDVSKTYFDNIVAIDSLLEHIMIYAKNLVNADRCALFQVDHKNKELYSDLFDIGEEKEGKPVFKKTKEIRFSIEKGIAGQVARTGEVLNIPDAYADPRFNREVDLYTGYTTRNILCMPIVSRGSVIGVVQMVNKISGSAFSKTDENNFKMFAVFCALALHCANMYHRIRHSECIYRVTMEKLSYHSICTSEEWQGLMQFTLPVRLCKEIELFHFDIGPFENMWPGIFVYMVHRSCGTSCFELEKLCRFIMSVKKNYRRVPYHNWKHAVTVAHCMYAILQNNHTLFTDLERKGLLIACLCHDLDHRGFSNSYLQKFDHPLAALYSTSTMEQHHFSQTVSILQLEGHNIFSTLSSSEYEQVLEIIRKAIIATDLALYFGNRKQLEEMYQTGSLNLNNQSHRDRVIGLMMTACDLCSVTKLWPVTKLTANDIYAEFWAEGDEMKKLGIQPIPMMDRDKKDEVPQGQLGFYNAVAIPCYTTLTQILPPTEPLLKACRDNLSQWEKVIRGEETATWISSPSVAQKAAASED

## Cc1c(-c2ccc(-c3ccccc3CN3CCOCC3)cc2)nc2ccc(F)cc2c1CO [Compound 12, 6-Fluoro-4-hydroxymethyl-3-methyl-2-(2′-morpholinomethylbiphenyl-4-yl)quinoline dihydrochloride]
Test compound concentration 1 μmol/L, read-out: [3H] cAMP decomposition inhibition rate (%)
  inhibition at 1 µM: 96%
read-out: IC50 (concentration at which to inhibit [3H]cAMP decomposition by 50%)
  IC50: 0.068 µM
